These results are taken from US20040162286A1, “Substituted 6-(2-tolyl)-triazolopyrimidines as fungicides” (priority 2001, published 2004).

Molecules are shown by their SMILES.

For the first test, the system named is Blumeria graminis f. sp. tritici. The test is described as follows: Fungicidal control of powdery mildew on wheat, protective spray. In kind it is in vivo. Particulars: 63 ppm active ingredient, assessed after 7 days, untreated plants infected to 85%. The source says: The active compounds, separately or together, were formulated as a 10% emulsion in a mixture of 70% by weight of cyclohexanone, 20% by weight of Nekanil® LN (Lutensol® AP6, wetting agent having emulsifying and dispersant action based on ethoxylated alkylphenols) and 10% by weight of Wettol® EM (nonionic emulsifier based on ethoxylated castor oil) and diluted with water to the desired concentration. The first fully developed leaves of pot grown wheat of the variety “Kanzler” were sprayed to run-off with an aqueous suspension, containing the concentration of active ingredient or their mixture mentioned in the table below, prepared from a stock solution containing 10% of the active ingredient, 85% cyclohexanone and 5% emulsifier. The next day the treated plants were inoculated with spores of Blumeria graminis f. sp. tritici by shaking heavily infestated stock plants over the treated pots. After cultivation in the greenhouse for 7 days at 22-26° C. and a relative humidity between 60 to 90% the extent of fungal attack on the leaves was visually assessed as % diseased leaf area. The test was conducted as described in Comparison trial 2.
On to `Cc1ccccc1-c1c(Cl)nc2ncnn2c1NC(C)C(F)(F)F` (centres unmarked) [Compound A], for which the “infection (% diseased leaf area)” value was 30%.

The subject of a further test is Alternaria solani. The test is described as follows: Fungicidal control of early blight on tomatoes, protective spray. It is filed as in vivo. Particulars: 63 ppm active ingredient; tomato plants; assessed after 6 days; untreated plants infected to 90%. As for the experimental part:
The active compounds, separately or together, were formulated as a 10% emulsion in a mixture of 70% by weight of cyclohexanone, 20% by weight of Nekanil® LN (Lutensol® AP6, wetting agent having emulsifying and dispersant action based on ethoxylated alkylphenols) and 10% by weight of Wettol® EM (nonionic emulsifier based on ethoxylated castor oil) and diluted with water to the desired concentration. Young seedlings of tomato plants of the variety “Groβe Fleischtomate St. Pierre” were grown in pots to the 2 to 4 leaf stage. These plants were sprayed to run-off with an aqueous suspension, containing the concentration of active ingredient mentioned in the table below, prepared from a stock solution containing 10% of the active ingredient, 85% cyclohexanone and 5% emulsifier. The next day, the treated plants were inoculated with an aqueous suspension of Alternaria solani containing 0.2×10^6 spores per ml. Then the trial plants were immediately transferred to a humid chamber. After 6 days at 20 to 23° C. and a relative humidity close to 100%, the extent of fungal attack on the leaves was visually assessed as % diseased leaf area. The test was conducted as described in Comparison trial 1.
On to `Cc1ccccc1-c1c(Cl)nc2ncnn2c1NC(C)C(F)(F)F` (centres unmarked) [Compound A], for which the “infection (% diseased leaf area)” value is 15%.

The test is the same for the next values; noted with them: 250 ppm active ingredient; tomato plants; untreated plants infected to 90%.
Regarding `Cc1cc(Cl)ccc1-c1c(Cl)nc2ncnn2c1NCC(F)(F)F` [I-83], the “infection (% diseased leaf area)” value was “no infection”.

Consider `CCC(C)Nc1c(-c2ccc(F)cc2C)c(Cl)nc2ncnn12` (racemic) [I-35], for which the “infection (% diseased leaf area)” value is on record as “no infection”.

For the molecule `Cc1cc(F)ccc1-c1c(Cl)nc2ncnn2c1NC(C)C(F)(F)F` (racemic) [I-44], the “infection (% diseased leaf area)” value is recorded as “no infection”.

Consider `C=C(C)CN(CC)c1c(-c2ccc(F)cc2C)c(Cl)nc2ncnn12` [I-28], for which the “infection (% diseased leaf area)” value was “no infection”.

Consider `Cc1cc(F)ccc1-c1c(Cl)nc2ncnn2c1N1CCC(C)CC1` [I-30], for which the “infection (% diseased leaf area)” value was “no infection”.

Take `Cc1cc(F)ccc1-c1c(Cl)nc2ncnn2c1NC(C)C(C)C` (racemic) [I-38]: the “infection (% diseased leaf area)” value is on record as “no infection”.

Turning to `Cc1cccc(F)c1-c1c(Cl)nc2ncnn2c1N1CCC(C)CC1` [I-9], the “infection (% diseased leaf area)” value is “no infection”.

In the case of `C=C(C)CN(CC)c1c(-c2c(C)cccc2F)c(Cl)nc2ncnn12` [I-7], the “infection (% diseased leaf area)” value is on record as “no infection”.

Turning to `Cc1cccc(F)c1-c1c(Cl)nc2ncnn2c1NC1CCCC1` [I-10], the “infection (% diseased leaf area)” value is on record as “no infection”.

Turning to `Cc1cc(Cl)ccc1-c1c(Cl)nc2ncnn2c1N1CCC(C)CC1` [I-66], the “infection (% diseased leaf area)” value is “no infection”.

As for `Cc1cc(F)ccc1-c1c(Cl)nc2ncnn2c1NC(C)C(C)(C)C` (racemic) [I-41], the “infection (% diseased leaf area)” value is “no infection”.

Another test deals with Plasmopara viticola. The test is described as follows: Fungicidal control of grape downy mildew (Comparison Trial 3, inoculation the next day). Particulars: 250 ppm active ingredient; grape cuttings; inoculated next day; untreated plants infected to 80%. In kind it is in vivo. As for the experimental part: The active compounds, separately or together, were formulated as a 10% emulsion in a mixture of 70% by weight of cyclohexanone, 20% by weight of Nekanil® LN (Lutensol® AP6, wetting agent having emulsifying and dispersant action based on ethoxylated alkylphenols) and 10% by weight of Wettol® EM (nonionic emulsifier based on ethoxylated castor oil) and diluted with water to the desired concentration. Grape cuttings of the cultivar “Müller-Thurgau” were grown in pots to the 4 to 5 leaf stage. These plants were sprayed to run-off with an aqueous suspension, containing the concentration of active ingredient or their mixture mentioned in the table below, prepared from a stock solution containing 10% of the active ingredient, 85% cyclohexanone and 5% emulsifier. The plants were allowed to air-dry. The next day they were inoculated with an aqueous spore suspension of Plasmopara viticola by spraying it at the lower leaf-side. Then the trial plants were immediately transferred for 24 h to a humid chamber with 22-24° C. and a relative humidity close to 100%. For a period of 5 days, cultivation followed in a greenhouse at 20-25° C. and a relative humidity about 50-80%. To stimulate the outbreak of the disease symptoms, the plants were transferred to a humid chamber again for 24 hours. Then the extent of fungal attack on the lower leaf surface was visually assessed as % diseased leaf area.
With `Cc1ccccc1-c1c(Cl)nc2ncnn2c1NC(C)C(F)(F)F` (centres unmarked) [Compound A], the “infection (% diseased leaf area, lower leaf surface)” value was 80%.
